From article PMC2375326, “In vitro evaluation of amino acid prodrugs of novel antitumour 2-(4-amino-3-methylphenyl)benzothiazoles” (British Journal of Cancer, 2002)

Assays:
MDA-N = test: NCI in vitro cytotoxicity assay (SRB), MDA-N; type: cell-based; details: Homo sapiens, 48 h exposure, sulforhodamine B assay, mean graph, read-out: Log10 GI50 (MDA-N) (converted)
Experimental: (§1) Cell culture and drug application procedures have been described previously ([Boyd and Paull, 1995]). Briefly, cell lines were inoculated into a series of 96-well microtiter plates, with varied seeding densities depending on growth characteristics of each cell line. Following a 24 h drug free incubation, test agents were added at five 10-fold dilutions with a maximum concentration of 100 μM. Cellular protein levels were determined after 48 h drug exposure by sulphorhodamine B colorimetry.

SF-295 = test: NCI in vitro cytotoxicity assay (SRB), SF-295; type: cell-based; details: Homo sapiens, 48 h exposure, sulforhodamine B assay, mean graph, read-out: Log10 GI50 (SF-295) (converted)
Experimental: as §1

KM12 = test: NCI in vitro cytotoxicity assay (SRB), KM12; type: cell-based; details: Homo sapiens, 48 h exposure, sulforhodamine B assay, mean graph, read-out: Log10 GI50 (KM12) (converted)
Experimental: as §1

CCRF-CEM = test: NCI in vitro cytotoxicity assay (SRB), CCRF-CEM; type: cell-based; details: Homo sapiens, 48 h exposure, sulforhodamine B assay, mean graph, read-out: Log10 GI50 (CCRF-CEM) (converted)
Experimental: as §1

CAKI-1 = test: NCI in vitro cytotoxicity assay (SRB), CAKI-1; type: cell-based; details: Homo sapiens, 48 h exposure, sulforhodamine B assay, mean graph, read-out: Log10 GI50 (CAKI-1) (converted)
Experimental: as §1

NCI-H522 = test: NCI in vitro cytotoxicity assay (SRB), NCI-H522; type: cell-based; details: Homo sapiens, 48 h exposure, sulforhodamine B assay, mean graph, read-out: Log10 GI50 (NCI-H522) (converted)
Experimental: as §1

[1] = design: method as in Bradshaw et al, 2002; details: in vivo, compound 2 regenerated from lysylamide prodrug compound 2b; ref Bradshaw et al, 2002; cited from earlier work
MCF-7 cells = test: Prodrug uptake, conversion and metabolism (HPLC of media), MCF-7; type: in vitro ADME, human; details: prodrug 10 μM, days 1–7
Experimental: MCF-7 cells were seeded into 25 ml flasks at appropriate densities (5×10^5–5×10^6). After 24 h, medium was changed and drug introduced at a final concentration of 10 μM. Media samples, collected from flasks at time zero and 24 h intervals, were mixed with 1.5-fold volumes of high performance liquid chromatography (HPLC) grade acetonitrile to precipitate protein and centrifuged at 14 000 g for 5 min. Supernatants (600 μl) were mixed with 400 μl 10% acetonitrile in 1% acetic acid and analysed by HPLC. The system consisted of Beckman System Gold equipment (solvent module 128, autosampler 507e and multiple wavelength UV detector 168). Separation of parent compounds and biotransformation products was effected at room temperature on a Phenomenex Aqua C18 reversed-phase column (150×4.6 mm). The mobile phase was formed by increasing, then decreasing the acetonitrile concentration in 1% acetic acid over 20 min by mixing two solutions: acetonitrile-water-acetic acid (10 : 90 : 1, v v^−1) and acetonitrile-water-acetic acid (80 : 20 : 1 v v^−1) and delivered at a flow rate of 1 ml min^−1. Compounds were detected at 324 nm.

EKVX = test: NCI in vitro cytotoxicity assay (SRB), EKVX; type: cell-based; details: Homo sapiens, 48 h exposure, sulforhodamine B assay, mean graph, read-out: Log10 GI50 (EKVX) (converted)
Experimental: as §1

[2] = tested on: CYP1A1 activity (EROD) in IGROV-1 cells; test: EROD activity in homogenates of treated IGROV-1 cells; type: cell-based, human; details: IGROV-1 cells treated 24 h; biphasic dose response
Experimental: A sensitive and rapid fluorometric assay was used to measure EROD activity ([Burke et al, 1994]). Incubation mixtures (total 1 ml) consisted of 100 mM Tris-HCl (pH 7.4), 50 μM MgCl2, 100 μM 7-ethoxyresorufin and 100 μl cell homogenate. Homogenates were prepared following treatment of cells for 24 h with compounds 1, 2, 2a, 2b, 3, 3a, 3b, 4, 4a and 4b or vehicle alone and protein content determined (n=3). Thus induction of ethoxyresorufin O-deethylation by agents under study, catalysed by CYP1A1 activity, could be determined. Alternatively, microsomes expressing recombinant CYP1A1 (0.1 mg ml^−1) provided the enzyme source for EROD catalysis, in the presence or absence of drug, in order to determine inhibition of CYP1A1 activity by compounds 1, 2, 2a, 2b, 3, 3a, 3b, 4, 4a and 4b. Incubation mixtures were pre-incubated for 5 min at 37°C before initiation of reaction by addition of NADPH (500 μM). Following further incubations at 37°C (30 min for cell homogenates, 15 min for CYP1A1 microsomes), reactions were terminated by addition of 3 ml ice-cold acetonitrile. […] Fluorescence was read on a Perkin-Elmer LS-5 luminescence spectrometer (excitation, 530 nm; emission 585 nm). Estimation of resorufin reaction product (pmoles mg^−1 protein, pmoles 100 μg^−1 microsomes), as a measure of CYP1A1 activity, was determined following performance of a resorufin standard curve.

[3] = tested on: CYP1A1 protein expression in IGROV-1 cells; test: Western blot of CYP1A1 protein, IGROV-1 lysates; type: cell-based, human; details: 10 nM to 10 μM, 24 h, result not shown
Experimental: Whole cell lysates were prepared for examination of CYP1A1 protein expression from untreated MCF-7, IGROV-1 and HCT 116 cultures and following exposure of cells to compounds 1, 2, 2a, 2b, 3, 3a, 3b, 4, 4a and 4b. Following protein determination (n=3, [Bradford, 1976]) and addition of sample buffer, samples were boiled at 95°C for 5 min and solubilised proteins (50 μg) were separated by sodium dodecyl sulphate (SDS) polyacrylamide gel (10%) electrophoresis. Proteins were electroblotted to polyvinylidene difluoride (PVDF) membranes and probed for CYP1A1 protein with polyclonal antiserum specific for human CYP1A1/1A2 (Gentest Corporation). Secondary antibody was conjugated to alkaline phosphatase, and CYP1A1 was detected following brief (<10 min) incubation with bromochloroindolyl phosphate and nitro-blue tetrazolium in alkaline phosphatase buffer. Molecular weight markers and a positive control of recombinant CYP1A1 (Gentest Corporation), included in all blots, confirmed detection of 52 kDa CYP1A1 protein.

OVCAR-4 = test: NCI in vitro cytotoxicity assay (SRB), OVCAR-4; type: cell-based; details: Homo sapiens, 48 h exposure, sulforhodamine B assay, mean graph, read-out: Log10 GI50 (OVCAR-4) (converted)
Experimental: as §1

[4] = tested on: breast and ovarian xenografts; design: method as in Bradshaw et al, 2002; details: in vivo; ref Bradshaw et al, 2002; cited from earlier work
HCC-2998 = test: NCI in vitro cytotoxicity assay (SRB), HCC-2998; type: cell-based; details: Homo sapiens, 48 h exposure, sulforhodamine B assay, mean graph, read-out: Log10 GI50 (HCC-2998) (converted)
Experimental: as §1

| Structure (SMILES) | GI50 (MDA-N) [µM] | GI50 (SF-295) [µM] | GI50 (KM12) [µM] | GI50 (CCRF-CEM) [µM] | GI50 (CAKI-1) [µM] | GI50 (NCI-H522) [µM] | Persistence of plasma concentrations sufficient for cytocidal activity against human mammary carcinoma cells [1] [h] | Biotransformation products of liberated parent amine in media (MCF-7 cells) | GI50 (EKVX) [µM] | Concentration giving maximum induction of EROD activity [2] [nM] | CYP1A1 protein expression (Western blot) [3] | GI50 (OVCAR-4) [µM] | Growth of breast and ovarian xenografts [4] | GI50 (HCC-2998) [µM] |
| --- | --- | --- | --- | --- | --- | --- | --- | --- | --- | --- | --- | --- | --- | --- |
| Cc1cc(-c2nc3cc(F)ccc3s2)ccc1N [Compound 2, 2-(4-Amino-3-methylphenyl)-5-fluorobenzothiazole] | > 100 | 20.9 | 69.2 | 1.23 | 25.7 | 28.8 | > 6 | No biotransformation products could be detected | 1.41 | – | – | – | – | – |
| Cc1cc(-c2nc3cc(F)ccc3s2)ccc1NC(=O)[C@@H](N)CCCCN [Compound 2b] | – | – | – | – | – | – | – | – | – | 1000 | clearly observed | 2.04 | suppresses significantly | 0.741 |
